{
  "source": "paper PMC4605843",
  "about": "“Cell-Penetrating Peptides Selectively Cross the Blood-Brain Barrier In Vivo” (PLoS ONE, 2015)",
  "key": {"[1]": {"assay": "In vitro metabolic stability in mouse kidney homogenate", "assay_type": "in vitro ADME", "settings": "mouse kidney homogenate 0.6 mg/ml protein (500 μl, 300 μg protein) + Krebs-Henseleit buffer pH 7.4, 0.1 mg/ml peptide, 37°C, 750 rpm, 0-120 min, HPLC-UV 215 nm", "procedure": "(§1) Prior to use, the protein content of each homogenate was determined using the Pierce Modified Lowry Protein Assay method (Thermo Scientific) to generate a stock solution with a protein concentration of 0.6 mg/ml by dilution with Krebs-Henseleit buffer (pH 7.4, Sigma-Aldrich). […] After sampling, enzymatic activity was terminated by additional heat inactivation at 95°C for 5 min, followed by cooling the samples in an ice bath for 30 min. […] Therefore, a solid phase extraction (SPE) protocol using an Oasis® WCX μelution plate (Waters, Zellik, Belgium) was used prior to HPLC-UV analysis. In the Supporting Information, the protocol of the SPE extraction procedure is described (S1 Text). Blank control solutions were prepared as described above, but without adding the peptide. To confirm chemical stability and mass balance, control reference solutions without tissue homogenate or with a prior heat inactivation were analyzed as well. The HPLC-UV system consisted of a Waters Alliance 2695 separation module and a Waters 2996 photodiode array (PDA) detector (detection from 190-400 nm, quantification at 215 nm), fitted with Empower 2 software for data handling (Waters). […] Appropriate gradients for separation of the peptides and their metabolites were created by mixtures of water (0.1% trifluoroacetic acid m/V) and acetonitrile (0.1% trifluoroacetic acid m/V)."}, "[2]": {"assay": "In vitro metabolic stability in mouse brain homogenate", "assay_type": "in vitro ADME", "settings": "mouse brain homogenate 0.6 mg/ml protein (500 μl, 300 μg protein) + Krebs-Henseleit buffer pH 7.4, 0.1 mg/ml peptide, 37°C, 750 rpm, 0-120 min, HPLC-UV 215 nm", "procedure": "as §1"}, "[3]": {"system": "brain parenchyma and capillaries", "assay": "Capillary depletion method: brain parenchyma/capillary distribution", "assay_type": "in vivo, ICR-CD-1 mice", "settings": "capillary depletion, 10 min after IV injection of radiolabeled peptide (200 μl, 10000 cpm/μl), brain perfused with lactated Ringer's buffer, two ICR-CD-1 mice, gamma counter", "procedure": "The capillary depletion method was used to evaluate the distribution of the peptide between the brain parenchyma and capillaries. In summary (see Materials and Methods in [45]), 200 μl of a radiolabeled peptide solution (10000 cpm/μl) was injected in the jugular externalis vein of two anesthetized ICR-CD-1 mice. Ten minutes after IV injection, mice were decapitated and brains were collected and measured for radioactivity. […] The resulting homogenate was weighed and centrifuged at 5400 g for 30 min at 4°C, resulting in a pellet, i.e. capillaries, and supernatant, i.e. parenchyma and fat tissue, which were weighed and measured in the gamma counter. […] Compartmental distribution was calculated as follows: Fractioncapillaries or parenchyma (%)=[…] or parenchyma/[…]×100 (4)"}, "cellular uptake": {"system": "cellular uptake", "parameters": "method as in Stalmans et al.[1]", "settings": "cell-penetrating (CP-) response, quantitative expression of cellular influx; ref Stalmans et al.[1]; cited from earlier work"}, "[4]": {"system": "blood-brain barrier (BBB)", "assay": "Multiple time regression (MTR) analysis, blood-to-brain influx", "assay_type": "in vivo, ICR-CD-1 mice", "settings": "whole brain, ± 65% confidence limits", "description": "Shortly, 200 μl of the radioiodinated CPP solution (30000 cpm/μl) was injected into the right jugular externalis vein of anesthetized ICR-CD-1 mice, which were then decapitated at 1, 3, 5, 10, 12.5 and 15 min post injection, with first and last time points performed in duplicate, after which brains were collected and measured for radioactivity using a gamma counter (Wallac Wizard 1470, Perkin Elmer). Shortly before decapitation, blood was collected from the left carotid artery, which was centrifuged (10000 g, 15 min at 21°C) in order to measure the radioactivity of blood and serum. Dermorphin and radioiodinated BSA were used as positive and negative control, respectively. The blood-to-brain entry during the experimental period of 15 min was evaluated by plotting the ratio of brain (Am(T)) and serum activity (Cp(T)), corrected for the brain weight and serum volume, respectively, versus the exposure time (Θ), expressing the theoretical steady state serum level of the iodinated peptide at a given serum concentration [37, 73]. The exposure time is calculated as the integral of the arterial serum radioactivity over time divided by the radioactivity at time t. The integral is calculated through the trapezoidal rule of the log-transformed data [73]. In the linear part of the curve, assuming a two-compartmental BBB model, data can be fitted using a linear model from which the unidirectional influx rate (Kin), also referred to as unidirectional blood to brain clearance K1 [46], and the initial brain distribution volume (Vi) can be determined using the following equation according to Gjedde and Patlak [37–40]: Am(T)/Cp(T)=Abrain(T)/Aserum(T)=Kin⋅Θ+Vi with Θ = ∫0TCp(t) ⋅ dt/Cp(T) (1)"}, "[5]": {"assay": "In vitro metabolic stability in mouse liver homogenate", "assay_type": "in vitro ADME", "settings": "mouse liver homogenate 0.6 mg/ml protein (500 μl, 300 μg protein) + Krebs-Henseleit buffer pH 7.4, 0.1 mg/ml peptide, 37°C, 750 rpm, 0-120 min, HPLC-UV 215 nm", "procedure": "as §1"}, "[6]": {"system": "blood-brain barrier (BBB)", "assay": "Brain-to-blood transport (efflux) after intracerebroventricular injection", "settings": "ICR-CD-1 mice", "procedure": "Female, ICR-CD-1 mice (Harlan Laboratories, Venray, The Netherlands), aged 7 to 10 weeks and weighing 28–36 g, were used during the in vivo BBB transport experiments. All animal experiments were performed in accordance with the Ethical Committee principles of laboratory animal welfare. The protocol was approved by the Ethical Committee of the Faculty of Veterinary Science of Ghent University (Permit Numbers: 2009–052 and 2014–128). Prior to experiments, mice were anesthetized by intraperitoneal injection of a 40% urethane solution (3 g/kg) (Sigma-Aldrich, Diegem, Belgium).\nFor evaluation of the efflux of the peptides out of the brain, 1 μl of a radioiodinated peptide solution (25000 cpm/μl) was injected in the lateral ventricle of anesthetized ICR-CD-1 mice at a speed of 360 μl/h for 10 s using a syringe pump (KDS100, KR analytical, Cheshire, UK). […] The brain half-time disappearance (t1/2,brain) was calculated from the linear regression of the natural logarithm of the residual radioactivity in brain versus time as follows: t1/2,brain=ln(2)/kout (5) with kout defined as the efflux rate constant calculated as the absolute value of the slope of the linear regression, applying first order kinetics. An extensive description of the protocol can be found elsewhere."}, "[7]": {"assay": "In vitro metabolic stability in mouse serum", "assay_type": "in vitro ADME", "procedure": "as §1"}, "[8]": {"system": "blood-brain barrier (BBB)", "assay": "Classification of peptides according to their BBB influx", "settings": "classification method of ref [61] applied to the measured influx", "from_the_text": "This peptide is derived from the murine vascular endothelial (VE)-cadherin, located in the adherens junctions between the vascular endothelial cells, and constitutes the 13 cytosolic amino acids closest to the membrane and five amino acids from the C-terminus of the transmembrane region (615–632)."}},
  "note": "Values joined by “and” are separate entries in the source; they are usually repeats but may differ in a detail not shown here. Equal entries are not always repeated.",
  "data": [
    {"substance": "AGYLLGKINLKPLAALAKKIL-NH2 [TP10-2]", "values": [
      {"measurement": "Half-life, kidney", "setting": "[1]", "result": 0.188, "unit": "h"},
      {"measurement": "Half-life, brain", "setting": "[2]", "result": 1.705, "unit": "h"},
      {"measurement": "Parenchymal fraction", "setting": "[3]", "result": 84, "unit": "%"},
      {"measurement": "CP-response", "setting": "cellular uptake", "result": 0.749},
      {"measurement": "Kin (unidirectional influx rate), linear Gjedde-Patlak model", "setting": "[4]; 125I-radioiodinated peptide, IV jugular vein 200 μl (30000 cpm/μl), anesthetized female ICR-CD-1 mice, 1-15 min, brain/serum radioactivity (gamma counter) vs exposure time, pVEC, SynB3, TP10: two experiments fitted together", "result": "0.36 µL/g/min and 0.36 ± 0.06 µL/g/min"},
      {"measurement": "Vi (initial brain distribution volume), linear Gjedde-Patlak model", "setting": "[4]; 125I-radioiodinated, IV, ICR-CD-1 mice, MTR 1-15 min", "result": "10.07 ± 1.00", "unit": "µL/g"},
      {"measurement": "Half-life, liver", "setting": "[5]", "result": 1.97, "unit": "h"},
      {"measurement": "kout (efflux transfer constant)", "setting": "[6]; 1 μl radioiodinated peptide (25000 cpm/μl) in lateral ventricle, 1-15 min, slope of ln(brain activity) vs time", "result": "0.06 ± 0.01", "unit": "min⁻¹"},
      {"measurement": "t1/2,brain (half-time disappearance)", "setting": "[6]; ln(2)/kout after intracerebroventricular injection", "result": 0.183, "unit": "h"},
      {"measurement": "Half-life, serum", "setting": "[7]; mouse serum 500 μl + 400 μl Krebs-Henseleit buffer pH 7.4 + 100 μl 1 mg/ml peptide, 37°C, 750 rpm, sampling 0-120 min plus early points, HPLC-UV 215 nm, t1/2 = -ln(2)/slope", "result": 3.823, "unit": "h"},
      {"measurement": "Serum half-life", "setting": "[7]; mouse serum in Krebs-Henseleit buffer pH 7.4, 37°C, SPE then HPLC-UV", "result": 4, "unit": "h"},
      {"measurement": "BBB influx class", "setting": "[8]", "result": "class 2"}
    ]}
  ]
}
